For 7 compounds, MIC and IC50 results are on record in ChEMBL document CHEMBL3603745, “Synthesis of ciprofloxacin dimers for evaluation of bacterial permeability in atypical chemical space” (Bioorg Med Chem Lett, 2015).

Converted amounts (≈) assume the structure as drawn.

Test [1] deals with Escherichia coli. The test can be described thus: Antibacterial activity against tolC-deficient Escherichia coli JW5503-1 by broth microdilution method. The format is functional. (In broth dilution the organism is exposed to a series of concentrations in liquid medium.)
Test [2] deals with Escherichia coli. The test can be described thus: Antibacterial activity against wild type Escherichia coli MC4100 by broth microdilution method. The format is functional.
For test [3], the system named is Escherichia coli. As to the kind of experiment: Antibacterial activity against fluoroquinolone-resistant Escherichia coli CH10 harboring gyrA S83L D87N, parC S80I E84G, AcrA+ by broth microdilution method. The format is functional.
In test [4] the test system is Staphylococcus aureus. The test can be described thus: Antibacterial activity against wild type methicillin-susceptible Staphylococcus aureus ATCC 49951 by broth microdilution method. It counts as functional.
The subject of test [5] is Staphylococcus aureus. As to the kind of experiment: Antibacterial activity against fluoroquinolone-resistant Staphylococcus aureus NB01006-AVR005 harboring gyrA S84L, parC S80F, parE E471K by broth microdilution method. It counts as functional.
Test [6] relates to Pseudomonas aeruginosa. The test can be described thus: Antibacterial activity against Pseudomonas aeruginosa K1542 deficient with mexX, mexB by broth microdilution method. The format is functional.
Test [7] relates to Escherichia coli. As to the kind of experiment: Antibacterial activity against wild type Escherichia coli ATCC 25922 by broth microdilution method. The format is functional.
For test [8], the system named is Escherichia coli. The test can be described thus: Antibacterial activity against tolC-deficient Escherichia coli NB27005-CDY0039 expressing gyrA S83L […], parC S80I mutant by broth microdilution method. It counts as functional.
In test [9] the test system is Pseudomonas aeruginosa. As to the kind of experiment: Antibacterial activity against mexX, mexB deficient Pseudomonas aeruginosa NB52023-CDK006 harboring gyrAT83I and parC S87L by broth microdilution method. The format is functional.
Test [10] can be described thus: Inhibition of Escherichia coli recombinant gyrase A2B2 assessed as reduction of pHOT-1 supercoiling after 90 mins.
In test [11] the test system is Pseudomonas aeruginosa. The test can be described thus: Antibacterial activity against mexX, mexB deficient Pseudomonas aeruginosa NB52023-CDK005 harboring gyrAT83I by broth microdilution method. It counts as functional.
Test [12] relates to Escherichia coli. As to the kind of experiment: Antibacterial activity against wild type Escherichia coli BW5328/pAH69 by broth microdilution method. The format is functional.
Test [13] has as its system Escherichia coli. As to the kind of experiment: Antibacterial activity against Escherichia coli imp-4213 by broth microdilution method. It counts as functional.
Test [14] has as its system Staphylococcus aureus. The test can be described thus: Antibacterial activity against wild type Staphylococcus aureus ATCC 29213 by broth microdilution method. The format is functional.
Test [15] deals with Pseudomonas aeruginosa. As to the kind of experiment: Antibacterial activity against wild type Pseudomonas aeruginosa PAO1 by broth microdilution method. The format is functional.

Consider `O=C(NCC(=O)N1CCN(c2cc3c(cc2F)c(=O)c(C(=O)O)cn3C2CC2)CC1)c1cccc(C(=O)NCC(=O)N2CCN(c3cc4c(cc3F)c(=O)c(C(=O)O)cn4C3CC3)CC2)c1`, for which the MIC – broadly, the lowest concentration found to suppress growth – against Escherichia coli [1] is 0.25 µg/mL (≈ 0.276 µM); in the test on Escherichia coli [2], 2 µg/mL (≈ 2.21 µM); with Escherichia coli [3], greater than 32 µg/mL; against Staphylococcus aureus [4] it was 1 µg/mL (≈ 1.1 µM); against Staphylococcus aureus [5], greater than 32 µg/mL; against Pseudomonas aeruginosa [6], 2 µg/mL (≈ 2.21 µM). Also, the MIC is 1 µg/mL (≈ 1.1 µM) in the test with Escherichia coli [7]; greater than 32 µg/mL in the test with Escherichia coli [8]; greater than 32 µg/mL against Pseudomonas aeruginosa [9]; 32 µg/mL (≈ 35.3 µM) against Pseudomonas aeruginosa [11]; 2 µg/mL (≈ 2.21 µM) against Escherichia coli [12]; 0.25 µg/mL (≈ 0.276 µM) in the test with Escherichia coli [13]. The MIC with Staphylococcus aureus [14] was greater than 32 µg/mL; against Pseudomonas aeruginosa [15], 16 µg/mL (≈ 17.6 µM). Moreover, the IC50 (commonly the midpoint of a concentration-inhibition curve) in test [10] is 3.2 µM.
In the case of `O=C(NCCCCC(=O)N1CCN(c2cc3c(cc2F)c(=O)c(C(=O)O)cn3C2CC2)CC1)c1cccc(C(=O)NCCCCC(=O)N2CCN(c3cc4c(cc3F)c(=O)c(C(=O)O)cn4C3CC3)CC2)c1`, the MIC against Escherichia coli [1] is 0.5 µg/mL (≈ 0.505 µM); against Escherichia coli [2], 16 µg/mL (≈ 16.1 µM); in the test on Escherichia coli [3] it was greater than 32 µg/mL; with Staphylococcus aureus [4], 4 µg/mL (≈ 4.04 µM); against Staphylococcus aureus [5] it was greater than 32 µg/mL; with Pseudomonas aeruginosa [6] it was greater than 32 µg/mL. The MIC is 16 µg/mL (≈ 16.1 µM) against Escherichia coli [7]; greater than 32 µg/mL in the test on Escherichia coli [8]; greater than 32 µg/mL in the test with Pseudomonas aeruginosa [9]; greater than 32 µg/mL in the test with Pseudomonas aeruginosa [11]; 16 µg/mL (≈ 16.1 µM) against Escherichia coli [12]; 2 µg/mL (≈ 2.02 µM) with Escherichia coli [13]. The MIC in the test with Staphylococcus aureus [14] and in the test with Pseudomonas aeruginosa [15] was greater than 32 µg/mL in each case. Besides, the IC50 in test [10] was 9.97 µM.
As for `C=CCCC(=O)N1CCN(c2cc3c(cc2F)c(=O)c(C(=O)O)cn3C2CC2)CC1`, the MIC against Escherichia coli [1] is no more than 0.03 µg/mL; in the test with Escherichia coli [2] it was 1 µg/mL (≈ 2.42 µM); in the test on Escherichia coli [3] it was greater than 32 µg/mL; in the test on Staphylococcus aureus [4], 0.25 µg/mL (≈ 0.605 µM); against Staphylococcus aureus [5], 32 µg/mL (≈ 77.4 µM); against Pseudomonas aeruginosa [6] it was 2 µg/mL (≈ 4.84 µM). Moreover, the MIC against Escherichia coli [7] was 0.5 µg/mL (≈ 1.21 µM); in the test on Escherichia coli [8], 2 µg/mL (≈ 4.84 µM); with Pseudomonas aeruginosa [9] it was greater than 32 µg/mL; with Pseudomonas aeruginosa [11] it was greater than 32 µg/mL; against Escherichia coli [12], 1 µg/mL (≈ 2.42 µM); in the test with Escherichia coli [13], no more than 0.03 µg/mL. Also, the MIC against Staphylococcus aureus [14] worked out at 0.25 µg/mL (≈ 0.605 µM); in the test with Pseudomonas aeruginosa [15], 16 µg/mL (≈ 38.7 µM). Also, the IC50 in test [10] amounted to 0.76 µM.
On to `CC(C)(C)OC(=O)NCCCCCC(=O)N1CCN(c2cc3c(cc2F)c(=O)c(C(=O)O)cn3C2CC2)CC1`, for which the MIC with Escherichia coli [1] was 0.06 µg/mL (≈ 0.11 µM); against Escherichia coli [2], greater than 32 µg/mL; in the test on Escherichia coli [3] it was greater than 32 µg/mL; against Staphylococcus aureus [4] it was 2 µg/mL (≈ 3.67 µM); with Staphylococcus aureus [5], greater than 32 µg/mL; against Pseudomonas aeruginosa [6], greater than 32 µg/mL. For the same compound, the MIC in the test with Escherichia coli [7] was greater than 32 µg/mL; in the test on Escherichia coli [8], 2 µg/mL (≈ 3.67 µM); in the test on Pseudomonas aeruginosa [9], greater than 32 µg/mL; in the test with Pseudomonas aeruginosa [11] it was greater than 32 µg/mL; with Escherichia coli [12] it was greater than 32 µg/mL; against Escherichia coli [13] it was 0.25 µg/mL (≈ 0.459 µM). For the same compound, the MIC in the test with Staphylococcus aureus [14] is 2 µg/mL (≈ 3.67 µM); in the test with Pseudomonas aeruginosa [15], greater than 32 µg/mL. Also, the IC50 in [10] came to 4.35 µM.
For `O=C(O)c1cn(C2CC2)c2cc(N3CCN(CCOCCOCCOc4ccc5ccc(=O)oc5c4)CC3)c(F)cc2c1=O`, the MIC in the test on Escherichia coli [1] was no more than 0.03 µg/mL; in the test on Escherichia coli [2], 2 µg/mL (≈ 3.29 µM); in the test with Escherichia coli [3], greater than 32 µg/mL; against Staphylococcus aureus [4], 2 µg/mL (≈ 3.29 µM); in the test with Staphylococcus aureus [5], greater than 32 µg/mL; in the test on Pseudomonas aeruginosa [6] it was 8 µg/mL (≈ 13.2 µM). Further, the MIC was 1 µg/mL (≈ 1.65 µM) in the test on Escherichia coli [7]; greater than 32 µg/mL in the test with Escherichia coli [8]; greater than 32 µg/mL in the test with Pseudomonas aeruginosa [9]; greater than 32 µg/mL with Pseudomonas aeruginosa [11]; 1 µg/mL (≈ 1.65 µM) in the test on Escherichia coli [12]; 0.125 µg/mL (≈ 0.206 µM) against Escherichia coli [13]. Further, the MIC against Staphylococcus aureus [14] was found to be 2 µg/mL (≈ 3.29 µM); against Pseudomonas aeruginosa [15] it was 16 µg/mL (≈ 26.3 µM). The IC50 in test [10] was 6.67 µM.
In the case of `O=C(O)c1cn(C2CC2)c2cc(N3CCNCC3)c(F)cc2c1=O` [CIPROFLOXACIN], the MIC with Escherichia coli [1] was no more than 0.03 µg/mL; in the test on Escherichia coli [2], no more than 0.03 µg/mL; in the test with Escherichia coli [3] it was greater than 32 µg/mL; in the test with Staphylococcus aureus [4] it was 0.25 µg/mL (≈ 0.754 µM); in the test with Staphylococcus aureus [5], greater than 32 µg/mL; with Pseudomonas aeruginosa [6] it was 0.06 µg/mL (≈ 0.181 µM). The MIC is no more than 0.03 µg/mL in the test on Escherichia coli [7]; 4 µg/mL (≈ 12.1 µM) in the test on Pseudomonas aeruginosa [9]; no more than 0.03 µg/mL in the test with Escherichia coli [12]; no more than 0.03 µg/mL in the test with Escherichia coli [13]; 0.5 µg/mL (≈ 1.51 µM) in the test with Staphylococcus aureus [14]. Also, the IC50 in test [10] stood at 0.46 µM.
As for `CC[C@H]1OC(=O)[C@H](C)[C@@H](O[C@H]2C[C@@](C)(OC)[C@@H](O)[C@H](C)O2)[C@H](C)[C@@H](O[C@@H]2O[C@H](C)C[C@H](N(C)C)[C@H]2O)[C@](C)(O)C[C@@H](C)C(=O)[C@H](C)[C@@H](O)[C@]1(C)O` [ERYTHROMYCIN], the MIC in the test with Escherichia coli [1] was 2 µg/mL (≈ 2.73 µM); in the test with Escherichia coli [2] it was greater than 32 µg/mL; against Escherichia coli [3], greater than 32 µg/mL; with Staphylococcus aureus [4], 0.25 µg/mL (≈ 0.341 µM); in the test on Staphylococcus aureus [5] it was 0.5 µg/mL (≈ 0.681 µM); against Pseudomonas aeruginosa [6], greater than 32 µg/mL. Besides, the MIC was greater than 32 µg/mL in the test with Escherichia coli [7]; 2 µg/mL (≈ 2.73 µM) with Escherichia coli [8]; greater than 32 µg/mL in the test with Pseudomonas aeruginosa [9]; greater than 32 µg/mL against Pseudomonas aeruginosa [11]; 32 µg/mL (≈ 43.6 µM) against Escherichia coli [12]; 2 µg/mL (≈ 2.73 µM) against Escherichia coli [13]. Besides, the MIC was 0.25 µg/mL (≈ 0.341 µM) in the test on Staphylococcus aureus [14] and greater than 32 µg/mL in the test on Pseudomonas aeruginosa [15].
